According to patent EP4635944A1, “2-AZABICYCLO[3.1.1]HEPTANE COMPOUND” (Daiichi Sankyo Company, Limited, priority 2022, dated 2024):

target: T1, human OX2R (Homo sapiens, UniProt O43614); assay: Evaluation of OX2R agonist activity (intracellular calcium, CHO-K1 cells with forced expression of human OX2R); assay type: cell-based; conditions: CHO-K1 cells expressing human OX2R; 100% = 5 µM of the reference compound; read-out: hOX2R EC50
T1 construct: host or cells: CHO-K1 (Chinese Hamster Ovary K1)
T1 sequence (O43614 1-444): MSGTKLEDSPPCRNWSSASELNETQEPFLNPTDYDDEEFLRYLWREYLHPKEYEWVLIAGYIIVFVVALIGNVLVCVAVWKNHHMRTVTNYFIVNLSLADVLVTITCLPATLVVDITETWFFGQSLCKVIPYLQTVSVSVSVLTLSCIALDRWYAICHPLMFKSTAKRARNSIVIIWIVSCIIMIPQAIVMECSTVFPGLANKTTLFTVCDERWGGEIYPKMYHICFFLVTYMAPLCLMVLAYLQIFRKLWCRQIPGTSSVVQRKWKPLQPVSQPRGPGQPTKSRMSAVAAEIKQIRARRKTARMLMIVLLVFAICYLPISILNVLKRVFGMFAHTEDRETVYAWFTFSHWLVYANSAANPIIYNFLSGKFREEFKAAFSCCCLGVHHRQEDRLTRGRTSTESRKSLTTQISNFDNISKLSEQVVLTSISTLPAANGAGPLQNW
Experimental: Evaluation of OX2R agonist activity
Chinese Hamster Ovary K1 (CHO-K1) cells (GenScript) with forced expression of human OX2R were seeded onto a 384 well microplate (Corning) at 7500 cells/well and cultured for 24 hours. 20 µL of the loading buffer (25 mM HEPES containing 1.25 mM of Probenecid and 2.5 µg/mL of Fluo 4-AM at final concentration, Hank's balanced salt solution, 0.06% Pluronic F-127, Quenching buffer) in the Calcium Kit II (DOJINDO LABORATORIES) was added, and the microplate was allowed to stand for 30 minutes. A reference compound (Example435 of WO 2019/027058, N-[(2S,3S)-2-[[3-(3,5-difluorophenyl)-2-fluoro-phenyl]methyl]-1-(2-hydroxy-2-methylpropanoyl)pyrrolidin-3-yl]ethanesulfonamide) or the test compound was added in 10 µL, and changes in intracellular calcium ion concentration were measured using FDSS7000EX (Hamamatsu Photonics K.K.) as a fluorescence intensity ratio obtained upon dual wavelength excitation at 480 nm and 540 nm. Note that the reference compound or test compound was dissolved in DMSO (final concentration of DMSO was 0.5%) and diluted with an assay buffer (20 mM HEPES, Hank's balanced salt solution, 0.1% BSA). The difference between the maximum and minimum fluorescence values between 5 and 7 seconds after the addition of the test compound or reference compound was used as the indicator. The value of wells to which the assay buffer containing no test compound was added was defined as 0%, and the value of wells to which 5 µM of the reference compound was added was defined as 100%. The 50% effective concentration (EC50 value) was determined from the values obtained when various concentrations of the test compound were added. […]

Row | EC50 [nM] | Compound
1 | 67 | CC(C)(O)C(=O)N1C2CC(C2)[C@H](NS(C)(=O)=O)[C@@H]1Cc1cccc(-c2cc(F)cc(F)c2)c1F (single isomer, unassigned) [Example 1]
2 | 89 | CN(C)S(=O)(=O)N[C@H]1C2CC(C2)N(C(=O)C(C)(C)O)[C@H]1Cc1cccc(-c2cc(F)cc(F)c2)c1F (single isomer, unassigned) [Example 2]
3 | 92 | CCS(=O)(=O)N[C@H]1C2CC(C2)N(C(=O)C(C)(C)O)[C@H]1Cc1cccc(-c2cc(F)cc(F)c2)c1F (single isomer, unassigned) [Example 3]
4 | 225 | CC(C)S(=O)(=O)N[C@H]1C2CC(C2)N(C(=O)C(C)(C)O)[C@H]1Cc1cccc(-c2cc(F)cc(F)c2)c1F (single isomer, unassigned) [Example 4]
5 | 239 | CCS(=O)(=O)NC1C2CC(C2)N(C(=O)C23CC(C2)C3)C1Cc1cccc(-c2cc(F)cc(F)c2)c1F (single isomer, unassigned) [Example 5, N-{2-(Bicyclo[1.1.1]pentan-1-ylcarbonyl)-3-[(2,3',5'-trifluoro[biphenyl]-3-yl)methyl]-2-azabicyclo[3.1.1]heptan-4-yl}ethanesulfonamide]
6 | 69 | CC(C)(O)C(=O)N1C2CC(C2)C(NS(=O)(=O)CF)C1Cc1cccc(-c2cc(F)cc(F)c2)c1F (single isomer, unassigned) [Example 6, 1-Fluoro-N-{2-(2-hydroxy-2-methylpropanoyl)-3-[(2,3',5'-trifluoro[biphenyl]-3-yl)methyl]-2-azabicyclo[3.1.1]heptan-4-yl}methanesulfonamide]
7 | 213 | CCS(=O)(=O)NC1C2CC(C2)N(C(=O)N(C)C)C1Cc1cccc(-c2cc(F)cc(F)c2)c1F (single isomer, unassigned) [Example 7, 4-[(Ethylsulfonyl)amino]-N,N-dimethyl-3-[(2,3',5'-trifluoro[biphenyl]-3-yl)methyl]-2-azabicyclo[3.1.1]heptane-2-carboxamide]
8 | 89 | CCS(=O)(=O)NC1C2CC(C2)N(C(=O)N2CCC2)C1Cc1cccc(-c2cc(F)cc(F)c2)c1F (single isomer, unassigned) [Example 9, N-{2-(Azetidin-1-ylcarbonyl)-3-[(2,3',5'-trifluoro[biphenyl]-3-yl)methyl]-2-azabicyclo[3.1.1]heptan-4-yl}ethanesulfonamide]
9 | 27 | CC(C)(O)C(=O)N1C2CC(F)(C2)C(NS(C)(=O)=O)C1Cc1cccc(-c2cc(F)cc(F)c2)c1F (single isomer, unassigned) [Example 12, N-{5-Fluoro-2-(2-hydroxy-2-methylpropanoyl)-3-[(2,3',5'-trifluoro[biphenyl]-3-yl)methyl]-2-azabicyclo[3.1.1]heptan-4-yl}methanesulfonamide]
10 | 1140 | CC(C)(O)C(=O)N1C2CC(C2)C(NS(C)(=O)=O)C1Cc1cccc(-c2cc(F)cc(F)c2)c1 (single isomer, unassigned) [Example 13, N-{3-[(3',5'-Difluoro[biphenyl]-3-yl)methyl]-2-(2-hydroxy-2-methylpropanoyl)-2-azabicyclo[3.1.1]heptan-4-yl}methanesulfonamide]
11 | 80 | CS(=O)(=O)NC1C2CC(C2)N(C(=O)C2CC2)C1Cc1ccnc(-c2cc(F)cc(F)c2)c1F (single isomer, unassigned) [Example 22, N-[2-(Cyclopropylcarbonyl)-3-{[2-(3,5-difluorophenyl)-3-fluoropyridin-4-yl]methyl}-2-azabicyclo[3.1.1]heptan-4-yl]methanesulfonamide]
12 | 34 | C[C@@H](O)C(=O)N1C2CC(F)(C2)C(NS(C)(=O)=O)C1Cc1cccc(-c2cc(F)cc(F)c2)c1F (single isomer, unassigned) [Example 23, N-{(3S,4R)-5-Fluoro-2-[(2R)-2-hydroxypropanoyl]-3-[(2,3',5'-trifluoro[biphenyl]-3-yl)methyl]-2-azabicyclo[3.1.1]heptan-4-yl}methanesulfonamide or N-{(3R,4S)-5-fluoro-2-[(2R)-2-hydroxypropanoyl]-3-[(2,3',5'-trifluoro[biphenyl]-3-yl)methyl]-2-azabicyclo[3.1.1]heptan-4-yl}methanesulfonamide]
13 | 62 | CS(=O)(=O)NC1C(Cc2cccc(-c3cc(F)cc(F)c3)c2F)N(C(=O)C2CC2)C2CC1(F)C2 (single isomer, unassigned) [Example 36, N-{(3S,4R)-2-(Cyclopropylcarbonyl)-5-fluoro-3-[(2,3',5'-trifluoro[biphenyl]-3-yl)methyl]-2-azabicyclo[3.1.1]heptan-4-yl}methanesulfonamide or N-{(3R,4S)-2-(cyclopropylcarbonyl)-5-fluoro-3-[(2,3',5'-trifluoro[biphenyl]-3-yl)methyl]-2-azabicyclo[3.1.1]heptan-4-yl}methanesulfonamide]
14 | 75 | CS(=O)(=O)NC1C2CC(C2)N(C(=O)C2CC2)C1Cc1ccnc(-c2cccc(Cl)c2)c1F (single isomer, unassigned) [Example 60, N-[3-{[2-(3-Chlorophenyl)-3-fluoropyridin-4-yl]methyl}-2-(cyclopropylcarbonyl)-2-azabicyclo[3.1.1]heptan-4-yl]methanesulfonamide]
15 | 40 | CC(C)(O)C(=O)N1C2CC(F)(C2)C(NS(C)(=O)=O)C1Cc1cccc(-c2cccc(Cl)c2)c1F (single isomer, unassigned) [Example 61, N-[(3S,4R)-3-[(3'-Chloro-2-fluoro[biphenyl]-3-yl)methyl]-5-fluoro-2-(2-hydroxy-2-methylpropanoyl)-2-azabicyclo[3.1.1]heptan-4-yl]methanesulfonamide or N-[(3R,4S)-3-[(3'-chloro-2-fluoro[biphenyl]-3-yl)methyl]-5-fluoro-2-(2-hydroxy-2-methylpropanoyl)-2-azabicyclo[3.1.1]heptan-4-yl]methanesulfonamide]
16 | 112 | CS(=O)(=O)N[C@H]1C2CC(C2)N(C(=O)C(O)C(F)F)[C@H]1Cc1cccc(-c2ccccc2)c1F (single isomer, unassigned) [Example 72]
17 | 16 | CCS(=O)(=O)N[C@H]1C2CC(C2)N(C(=O)[C@@H](C)O)[C@H]1Cc1cccc(-c2ccccc2)c1F (single isomer, unassigned) [Example 80]
18 | 43 | CCS(=O)(=O)NC1C2CC(C2)N(C(=O)[C@@H](C)O)C1Cc1cc(F)cc(-c2ccccc2)c1F (single isomer, unassigned) [Example 81]
19 | 79 | CS(=O)(=O)N[C@@H]1[C@H](Cc2cc(F)cc(-c3cccc(Cl)c3)c2F)N(C(=O)[C@H](O)C(F)(F)F)C2CC1(F)C2 (single isomer, unassigned) [Example 82]
20 | 19 | CCS(=O)(=O)N[C@@H]1[C@H](Cc2cccc(-c3ccccc3)c2F)N(C(=O)[C@@H](C)O)C2CC1(F)C2 (single isomer, unassigned) [Example 83]
21 | 231 | CS(=O)(=O)N[C@@H]1[C@H](Cc2cccc(-c3ccccc3)c2F)N(C(=O)c2ccon2)C2CC1(F)C2 (single isomer, unassigned) [Example 84]
22 | 275 | CC(C)(F)C(=O)N1C2CC(F)(C2)[C@H](NS(C)(=O)=O)[C@@H]1Cc1cccc(-c2ccccc2)c1F (single isomer, unassigned) [Example 85]
23 | 112 | C[C@H](O)CC(=O)N1C2CC(C2)[C@H](NS(C)(=O)=O)[C@@H]1Cc1cccc(-c2ccccc2)c1F (single isomer, unassigned) [Example 86]
24 | 9.9 | C=CS(=O)(=O)NC1C(Cc2cc(F)cc(-c3ccccc3)c2F)N(C(=O)[C@@H](C)O)C2CC1(F)C2 (single isomer, unassigned) [Example 96]
25 | 298 | COc1cccc(-c2cccc(C[C@H]3[C@@H](NS(C)(=O)=O)C4CC(C4)N3C(=O)C(C)(C)O)c2F)c1 (stereo in doubt) [Example 14, N-[(3S,4S)-3-[(2-Fluoro-3'-methoxy[biphenyl]-3-yl)methyl]-2-(2-hydroxy-2-methylpropanoyl)-2-azabicyclo[3.1.1]heptan-4-yl]methanesulfonamide]
26 | 83 | CC(C)(O)C(=O)N1C2CC(C2)[C@H](NS(C)(=O)=O)[C@@H]1Cc1cccc(-c2cccc(F)c2F)c1F [Example 8, N-{(3S,4S)-2-(2-Hydroxy-2-methylpropanoyl)-3-[(2,2',3'-trifluoro[biphenyl]-3-yl)methyl]-2-azabicyclo[3.1.1]heptan-4-yl}methanesulfonamide]
